Measurements: patent US20080009435A1, “Synthetic methods for aplidine and new antitumoral derivatives, methods of making and using them” (Pharma Mar, S.A., a Spain corporation, priority 2000, published 2008)
Where two headings read alike, the source gives them in different places. *1 amine or outer side, *2 acyl side, *3 side chain or, on linkers, in order; H or OH if unused. Where a SMILES comes first, the peptide text is derived from it. Bridges are numbered along the chain shown (N, C = ends). [ ]: non-standard residue; d: D form. X2 = CC[C@H](C)[C@@H](N[*:1])[C@@H](O)CC(=O)[*:2]; NMeY = CN[C@@H](Cc1ccc(O)cc1)C(=O)O; dNMeL = CN[C@H](CC(C)C)C(=O)O

Assays:
[1] = system: DU145 human prostate carcinoma; test: Cytotoxicity IC50 (after Berjeron et al); format: cell-based
Description: P388=Murine lymphoma. A549=human lung carcinoma. HT-29=human colon carcinoma. MEL-28=human melanoma. DU145=human prostate carcinoma
Chem. 2000, 65, 782-792. Their synthesis was published before their discovery (l): Org. […] A549=human lung carcinoma. HT-29=human colon carcinoma. MEL-28=human melanoma. DU145=human prostate carcinoma

P388 Murine lymphoma = test: Cytotoxicity IC50 (after Berjeron et al)
Description: (§1) Methodology: after Berjeron et al, Biochem and Bioph Res. Comm., 1984, 121, 3, 848-854.

[2] = system: A549 human lung carcinoma; test: Cytotoxicity IC50 (after Berjeron et al)
Description: as §1

[3] = system: HT-29 human colon carcinoma; test: Cytotoxicity IC50 (after Berjeron et al)
Description: as §1

MEL-28 human melanoma = test: Cytotoxicity IC50 (after Berjeron et al)
Description: as §1

tumor cells = test: In vitro antitumor activity; format: cell-based
[4] = read-out: Cytotoxicity of aplidine derivatives IC50 (Molar) A549, A549
[5] = read-out: Cytotoxicity of aplidine derivatives IC50 (Molar) HT29, HT29
[6] = DU145, read-out: Cytotoxicity of aplidine derivatives IC50 (Molar) DU145
[7] = read-out: Cytotoxicity of aplidine derivatives IC50 (Molar) P388, P388
[8] = read-out: Cytotoxicity of aplidine derivatives IC50 (Molar) MEL28, MEL28

Compound | IC50 [2, 4] | IC50 [3, 5] | also measured
CC[C@H](C)[C@H]1NC(=O)[C@@H](NC(=O)[C@@H](CC(C)C)NC)[C@@H](C)OC(=O)[C@H](Cc2ccc(OC)cc2)N(C)C(=O)[C@@H]2CCCN2C(=O)[C@H](CC(C)C)NC(=O)[C@H](C(C)C)NC(=O)C[C@@H]1O [SVPL2, [Val]^3-Didemnin A] (H-[dNMeL]T[X2]VLP[NMeY](Me); ester 2-C) |  |  | IC50 ([1]; Homo sapiens, DU-145, read-out: Cytotoxicity of aplidine derivatives IC50 (Molar) DU145): 1.13 nM; IC50 (P388 Murine lymphoma; Mus musculus, P388, read-out: Cytotoxicity of aplidine derivatives IC50 (Molar) P388): 1.1 nM; IC50 ([2]; Homo sapiens, A549, read-out: Cytotoxicity of aplidine derivatives IC50 (Molar) A549): 1.13 nM; IC50 ([3]; Homo sapiens, HT-29, read-out: Cytotoxicity of aplidine derivatives IC50 (Molar) HT29): 1.13 nM; IC50 (MEL-28 human melanoma; Homo sapiens, SK-MEL-28, read-out: Cytotoxicity of aplidine derivatives IC50 (Molar) MEL28): 1.13 nM
[Gly]^8-[coumarin]^9-didemnin A [8G9CSAPL1] | 4.26 nM | 4.26 nM | 
[Hiv]^3 Z-Didemnin A [SHPL3] | 4.9 nM | 4.9 nM | IC50 [1, 6]: 4.9 nM; IC50 (P388 Murine lymphoma; [7]): 4.9 nM; IC50 (MEL-28 human melanoma; [8]): 4.9 nM
[Hiv]^3-[Ala]^9 aplidine [9ASHPL1] | 0.916 nM | 0.916 nM | 
[Hiv]^3-[D-Lac(OTBDMS)]^9-aplidine [9LSHPL2(D)] | 85.5 nM | 85.5 nM | 
[Hiv]^3-[NVa-Pro]^9-aplidine [9NVSHPL1] | 0.923 nM | 0.923 nM | 
[Hiv]^3-[Pro]^8-didemnin A [8PSHPL1] | 1.01 nM | 1.01 nM | 
[Hiv]^3-[Z-Ala]^9-aplidine [9ZASHPL2] | 4.21 nM | 4.21 nM | 
[Hiv]^3-[Z-NVa-Pro]^9-aplidine [9NVSHPL2] | 8.22 nM | 8.22 nM | 
[MeVal]^3-aplidine |  |  | in vitro antitumor activity (tumor cells): high level of in vitro antitumor activity
[NVa-Pro]^9-aplidine [9NVSAPL1] | 0.439 nM | 0.439 nM | 
[Val]^3 Z-Didemnin A [SVPL3] | 0.98 nM | 0.98 nM | IC50 [1, 6]: 0.98 nM; IC50 (P388 Murine lymphoma; [7]): 0.98 nM; IC50 (MEL-28 human melanoma; [8]): 0.98 nM
[ZNVa-Pro]^9-aplidine [9NVSAPL2] | 3.93 nM | 3.93 nM | IC50 [1, 6]: 3.93 nM; IC50 (P388 Murine lymphoma; [7]): 7.9 nM; IC50 (MEL-28 human melanoma; [8]): 3.93 nM
[coumarin]^8-didemnin A [8CSAPL1] | 0.941 nM | 0.941 nM | 
